Experimental data from patent US8884023B2, “Pyrano [3,2-D][1,3]thiazole as glycosidase inhibitors” (priority 2011, dated 2014).
Read-outs that look alike come from different tables or passages of the source.

Target: T1, His-Tagged hOGA (human O-GlcNAcase) (Homo sapiens, UniProt O60502)
T1 sequence (O60502 1-916): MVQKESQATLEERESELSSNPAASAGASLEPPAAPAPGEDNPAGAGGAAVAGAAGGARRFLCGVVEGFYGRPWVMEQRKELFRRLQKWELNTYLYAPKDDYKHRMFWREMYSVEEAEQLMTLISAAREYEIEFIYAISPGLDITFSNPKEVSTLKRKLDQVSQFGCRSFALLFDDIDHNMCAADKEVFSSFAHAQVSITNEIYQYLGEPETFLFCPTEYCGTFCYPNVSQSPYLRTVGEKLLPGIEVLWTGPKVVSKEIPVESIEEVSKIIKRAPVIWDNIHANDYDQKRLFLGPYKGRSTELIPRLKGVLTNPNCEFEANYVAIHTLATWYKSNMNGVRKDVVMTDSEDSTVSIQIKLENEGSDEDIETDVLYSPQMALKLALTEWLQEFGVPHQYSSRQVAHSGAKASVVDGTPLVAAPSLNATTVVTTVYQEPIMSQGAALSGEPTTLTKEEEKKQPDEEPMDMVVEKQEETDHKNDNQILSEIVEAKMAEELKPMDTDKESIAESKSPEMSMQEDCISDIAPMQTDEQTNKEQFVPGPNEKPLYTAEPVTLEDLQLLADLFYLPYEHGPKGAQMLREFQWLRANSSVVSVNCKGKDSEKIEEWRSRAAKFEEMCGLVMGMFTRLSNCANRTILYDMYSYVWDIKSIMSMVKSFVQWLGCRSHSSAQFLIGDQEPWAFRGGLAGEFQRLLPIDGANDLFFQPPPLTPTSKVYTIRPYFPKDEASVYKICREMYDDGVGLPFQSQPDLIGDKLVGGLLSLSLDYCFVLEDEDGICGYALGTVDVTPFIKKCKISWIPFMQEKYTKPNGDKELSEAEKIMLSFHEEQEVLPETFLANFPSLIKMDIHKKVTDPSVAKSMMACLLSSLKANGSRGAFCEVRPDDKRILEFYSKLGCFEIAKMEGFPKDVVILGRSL
Test: biochemical
Protocol: Human O-GlcNAcase Enzyme Inhibition Assay
The following reaction components were added to a final volume of 10 μL in McIlvaine's Buffer (pH 6.5):
20 nM His-Tagged hOGA and 10 μM Fluoroscein mono-beta-D-(2-deoxy-2-N-acetyl) glucopyranoside (FL-GlcNAc; Marker Gene Technologies Inc, Part #M1485). […] The amount of fluorescence measured was plotted against the concentration of inhibitor to produce a sigmoidal dose response curve, from which an IC50 was calculated.

[1] = read-out: OGA enzyme inhibition (IC50)

| SMILES | IC50 [nM] | IC50 [1] [nM] | also measured |
| --- | --- | --- | --- |
| CCNC1=N[C@@H]2[C@@H](O)[C@H](O)[C@@H](C=O)O[C@@H]2S1 [compound no. 47, (3aR,5S,6S,7R,7aR)-2-(ethylamino)-6,7-dihydroxy-5,6,7,7a-tetrahydro-3aH-pyrano[3,2-d][1,3]thiazole-5-carbaldehyde] | < 100 |  |  |
| CCNC1=N[C@@H]2[C@@H](O)[C@H](O)[C@@H](Cn3cc(Cn4ccnc4-c4cccs4)nn3)O[C@@H]2S1 [compound 97] | < 100 |  |  |
| CCNC1=N[C@@H]2[C@@H](O)[C@H](O)[C@@H](Cn3nnnc3C(=O)c3ccccc3)O[C@@H]2S1 [compound 105] | > 1000 |  |  |
| CCNC1=N[C@@H]2[C@@H](O)[C@H](O)[C@@H](C(=O)CCCc3ccccc3)O[C@@H]2S1 [compound no. 60, 1-[(3aR,5S,6S,7R,7aR)-2-(ethylamino)-6,7-dihydroxy-5,6,7,7a-tetrahydro-3aH-pyrano[3,2-d][1,3]thiazol-5-yl]-4-phenylbutan-1-one] | > 1000 |  |  |
| CCNC1=N[C@@H]2[C@@H](O)[C@H](O)[C@@H](Cn3cc(Cn4nc(C)nc4C)nn3)O[C@@H]2S1 [compound 96] | < 100 |  |  |
| CCN(C(=O)Oc1ccccc1)C1=N[C@@H]2[C@@H](O)[C@H](O)[C@@H](CO)O[C@@H]2S1 [compound no. 63, Phenyl-[(3aR,5R,6S,7R,7aR)-6,7-dihydroxy-5-(hydroxymethyl)-5,6,7,7a-tetrahydro-3aH-pyrano[3,2-d][1,3]thiazol-2-yl]ethylcarbamate] | 100 to 500 |  |  |
| CCNC1=N[C@@H]2[C@@H](O)[C@H](O)[C@@H](C(=O)Nc3ccccc3)O[C@@H]2S1 [compound no. 31, (3aR,5S,6S,7R,7aR)-2-(ethylamino)-6,7-dihydroxy-N-phenyl-5,6,7,7a-tetrahydro-3aH-pyrano[3,2-d][1,3]thiazole-5-carboxamide] | > 1000 |  |  |
| CCNC1=N[C@@H]2[C@@H](O)[C@H](O)[C@@H](Cn3cc(Cn4c(C(F)(F)F)nc5ccccc54)nn3)O[C@@H]2S1 [compound 95] | < 100 |  |  |
| CCNC1=N[C@@H]2[C@@H](O)[C@H](O)[C@@H](C(=O)N(C)OC)O[C@@H]2S1 [compound no. 45, (3aR,5S,6S,7R,7aR)-2-(ethylamino)-6,7-dihydroxy-N-methoxy-N-methyl-5,6,7,7a-tetrahydro-3aH-pyrano[3,2-d][1,3]thiazole-5-carboxamide] |  | > 1000 |  |
| CCNC1=N[C@@H]2[C@@H](OC)[C@H](O)[C@@H](CO)O[C@@H]2S1 [compound no. 15, (3aR,5R,6S,7R,7aR)-2-(ethylamino)-5-(hydroxymethyl)-7-methoxy-5,6,7,7a-tetrahydro-3aH-pyrano[3,2-d][1,3]thiazol-6-ol] | > 1000 |  |  |
| CCNC1=N[C@@H]2[C@@H](O)[C@H](O)[C@@H](C(O)Cc3ccccc3)O[C@@H]2S1 (some centres unmarked) [compound 52] | 100 to 500 |  |  |
| CCNC1=N[C@@H]2[C@@H](O)[C@H](O)[C@@H](C(=O)OC)O[C@@H]2S1 [compound no. 42, Methyl-(3aR,5S,6S,7R,7aR)-2-(ethylamino)-6,7-dihydroxy-5,6,7,7a-tetrahydro-3aH-pyrano[3,2-d][1,3]thiazole-5-carboxylate] |  | > 1000 |  |
| CCNC1=N[C@@H]2[C@@H](O)[C@H](O)[C@@H](Cn3cc(COc4ccccc4C(C)O)nn3)O[C@@H]2S1 (some centres unmarked) [compound 85] | 100 to 500 |  |  |
| CCNC1=N[C@@H]2[C@@H](O)[C@H](O)[C@@H](Cn3cc(-c4cn(S(=O)(=O)c5ccccc5)c5ccccc45)nn3)O[C@@H]2S1 [compound 98] | < 100 |  |  |
| CCNC1=N[C@@H]2[C@@H](O)[C@H](O)[C@@H](CNCc3ccccc3)O[C@@H]2S1 [compound no. 48, (3aR,5R,6S,7R,7aR)-5-[(benzylamino)methyl]-2-(ethylamino)-5,6,7,7a-tetrahydro-3aH-pyrano[3,2-d][1,3]thiazole-6,7-diol] |  | 500 to 1000 |  |
| CCNC1=N[C@@H]2[C@@H](O)[C@H](O)[C@@H](C(=O)NCCc3ccc(Oc4ccccc4)cc3)O[C@@H]2S1 [compound no. 33, (3aR,5S,6S,7R,7aR)-2-(ethylamino)-6,7-dihydroxy-N-[2-(4-phenoxyphenyl)ethyl]-5,6,7,7a-tetrahydro-3aH-pyrano[3,2-d][1,3]thiazole-5-carboxamide] | > 1000 |  |  |
| CCNC1=N[C@@H]2[C@@H](O)[C@H](O)[C@@H](Cn3cc(COc4ccccc4CN)nn3)O[C@@H]2S1 [compound 102] |  | 100 to 500 |  |
| CCN(C(=O)OCc1ccccc1)C1=N[C@@H]2[C@@H](O)[C@H](O)[C@@H](CO)O[C@@H]2S1 [compound no. 62, benzyl [(3aR,5R,6S,7R,7aR)-6,7-dihydroxy-5-(hydroxymethyl)-5,6,7,7a-tetrahydro-3aH-pyrano[3,2-d][1,3]thiazol-2-yl]ethylcarbamate] |  |  | IC50 (20 nM His-Tagged hOGA, 10 μM FL-GlcNAc, pH 6.5, 60 min room temperature, read-out: OGA enzyme inhibition (IC50)): 100 to 500 nM |
| CCNC1=N[C@@H]2[C@@H](OC)[C@H](OC)[C@@H](COC)O[C@@H]2S1 [compound no. 13, (3aR,5R,6S,7R,7aR)—N-ethyl-6,7-dimethoxy-5-(methoxymethyl)-5,6,7,7a-tetrahydro-3aH-pyrano[3,2-d][1,3]thiazol-2-amine] | > 1000 |  |  |
| CCN(C)C1=N[C@@H]2[C@@H](O)[C@H](O)[C@@H](C(=O)O)O[C@@H]2S1 [compound no. 36, (3aR,5S,6S,7R,7aR)-2-[ethyl(methyl)amino]-6,7-dihydroxy-5,6,7,7a-tetrahydro-3aH-pyrano[3,2-d][1,3]thiazole-5-carboxylic acid] |  | > 1000 |  |
| CCN(C(=O)OC(C)(C)C)C1=N[C@@H]2[C@@H](O)[C@H](O)[C@@H](COCc3ccccc3)O[C@@H]2S1 [compound no. 16, Tert-butyl {(3aR,5R,6S,7R,7aR)-5-[(benzyloxy)methyl]-6,7-dihydroxy-5,6,7,7a-tetrahydro-3aH-pyrano[3,2-d][1,3]thiazol-2-yl}ethylcarbamate] | > 1000 |  |  |
| CCNC1=N[C@@H]2[C@@H](O)[C@H](O)[C@@H](C(=O)NCCc3ccc(-c4ccccc4)cc3)O[C@@H]2S1 [compound no. 23, (3aR,5S,6S,7R,7aR)—N-(2-biphenyl-4-ylethyl)-2-(ethylamino)-6,7-dihydroxy-5,6,7,7a-tetrahydro-3aH-pyrano[3,2-d][1,3]thiazole-5-carboxamide] | > 1000 |  |  |
| CCNC1=N[C@@H]2[C@@H](O)[C@H](O)[C@@H](C(=O)N(C)C)O[C@@H]2S1 [compound no. 28, (3aR,5S,6S,7R,7aR)-2-(ethylamino)-6,7-dihydroxy-N,N-dimethyl-5,6,7,7a-tetrahydro-3aH-pyrano[3,2-d][1,3]thiazole-5-carboxamide] | > 1000 |  |  |
| CCNC1=N[C@@H]2[C@@H](O)[C@H](O)[C@@H](Cn3cc(COC)nn3)O[C@@H]2S1 [compound 11, (3aR,5R,6S,7R,7aR)-2-(ethylamino)-5-{[4-(methoxymethyl)-1H-1,2,3-triazol-1-yl]methyl}-5,6,7,7a-tetrahydro-3aH-pyrano[3,2-d][1,3]thiazole-6,7-diol] |  | 100 to 500 |  |
| CCNC1=N[C@@H]2[C@@H](O)[C@H](O)[C@@H](Cn3cc(COc4cccc(N)c4)nn3)O[C@@H]2S1 [compound 101] |  | 100 to 500 |  |
| CCNC1=N[C@@H]2[C@@H](O)[C@H](O)[C@@H]([C@H](O)CCc3ccccc3)O[C@@H]2S1 [compound no. 54, (3aR,5R,6S,7R,7aR)-2-Ethylamino-5-((R)-1-hydroxy-3-phenyl-propyl)-5,6,7,7a-tetrahydro-3aH-pyrano[3,2-d]thiazole-6,7-diol] |  | > 1000 |  |
